Experimental data published in patent US20260069722A1, “COMPOSITION FOR FLUORESCENT LABELING, FLUORESCENT PROBE, INJECTION AGENT, SYRINGE FILLING, MEDICAL APPARATUS, MEDICAL FIBER MATERIAL, METHOD FOR PRODUCING COMPOSITION FOR FLUORESCENT LABELING, AND METHOD FOR PRODUCING MEDICAL FIBER MATERIAL” (VITA CORPORATION, priority 2022, published 2026).

Experiment: mixing and kneading of ICG pigment with resin, compression molding
Type: physicochemical
Conditions: pigment (ICG in glycerol) 1 to 7 phr kneaded with PP, PVC, LDPE, EVA, TPU at 140 to 170 degrees Celsius
Protocol: Pigment (ICG plus solvent) was mixed and kneaded with various types of resin, and then it was verified whether or not a sheet could be manufactured by compression molding.
As the various types of resin, five types were prepared, which include polypropylene (PP), polyvinyl chloride (PVC), low-density polyethylene (LDPE), ethylene-vinyl acetate copolymer resin (EVA), and thermoplastic polyurethane (TPU). As the pigment, viscous liquid was used in which […] 25 mg of ICG were mixed and dissolved with 10 ml of glycerol.
In addition, four patterns, i.e., 1 phr, 3 phr, 5 phr, and 7 phr of the above pigment were prepared. Note that phr is abbreviation of per hundred resin, which is a unit expressing a ratio of pigment mixed in resin whose weight is 100. For instance, if A g of pigment is in 100 g of resin, the pigment ratio can be said to be A (phr).
The resin was charged into a mixer that had been preheated, and was kneaded until it was plasticized. As the above mixer, Laboplast mill 4 M150 manufactured by Toyo Seiki Seisaku-sho, Ltd. was used. Note that “Laboplast mill” is a registered trademark of Toyo Seiki Seisaku-sho, Ltd. This step was performed for each resin prepared in advance. Mixing and kneading was performed for five minutes at temperature set for each resin. […]

SMILES: CC1(C)C(/C=C/C=C/C=C/C=C2\N(CCCCS(=O)(=O)[O-])c3ccc4ccccc4c3C2(C)C)=[N+](CCCCS(=O)(=O)[O-])c2ccc3ccccc3c21.[Na+] [ICG, indocyanine green]
- thermal degradation due to mixing and kneading: thermal degradation of ICG due to mixing and kneading can be suppressed
